In patent US9107871B2, “LHRH—antagonists in the treatment of fertility disorders” (ZENTARIS IVP GMBH, priority 1996, dated 2015):
Where a SMILES comes first, the peptide text is derived from it. [ ]: non-standard residue; d: D form. dPhe(4-Cl) = N[C@H](Cc1ccc(Cl)cc1)C(=O)O; d2Nal = N[C@H](Cc1ccc2ccccc2c1)C(=O)O; dCit = NC(=O)NCCC[C@@H](N)C(=O)O; d3Pal = N[C@H](Cc1cccnc1)C(=O)O

Test system: patients undergoing COS/ART
Assay: Phase II clinical trial of Cetrorelix in controlled ovarian stimulation/superovulation for assisted reproduction (COS/ART)
Format: in vivo, human
Settings: for premature LH surge: s.c., patients undergoing COS/ART
Experimental: The results of a phase II clinical trial are shown in Table I. A total of 235 patients were treated. […] During multiple dosing, the mean days of Cetrorelix application is 6 days. 25 babies were born by the end of May 1996 (7 following multiple doses; 18 following single/dual doses). […] [table] 238 patients were treated with Cetrorelix by subcutaneous injection of Cetrorelix […]-Lyophilisat. 134 patients were treated with multiple doses and 104 patients with single or dual doses. The multiple doses are 0.25 mg/day or higher. The single dose was 3 mg or higher. […] Multiple doses were applied for 3 to a maximum of 10 days dependent on follicular development.

[1] = multiple dose, dose/day, phase II dose finding

## CC(=O)N[C@H](Cc1ccc2ccccc2c1)C(=O)N[C@H](Cc1ccc(Cl)cc1)C(=O)N[C@H](Cc1cccnc1)C(=O)N[C@@H](CO)C(=O)N[C@@H](Cc1ccc(O)cc1)C(=O)N[C@H](CCCNC(N)=O)C(=O)N[C@@H](CC(C)C)C(=O)N[C@@H](CCCNC(=N)N)C(=O)N1CCC[C@H]1C(=O)N[C@H](C)C(N)=O [Cetrorelix] (Ac-[d2Nal][dPhe(4-Cl)][d3Pal]SY[dCit]LRP[dA]-NH2)
FIG. 1
  premature LH surge (FIG. 1, time variation of hormonal levels): absolute prevention of any premature LH surge
All phase II patients, both regimens
  pregnancies obtained (number): 71
By the end of May 1996, all patients
  babies born (number): 25
By the end of May 1996, following multiple doses
  babies born (number): 7
By the end of May 1996, following single/dual doses
  babies born (number): 18
Following multiple doses
  babies born (number): 15
Following single/dual doses
  babies born (number): 29
Multiple dose regimen, of 134 patients
  pregnancies obtained (number): 38
[1]
  minimal effective dose: 0.25 min. effect. dose mg
  no effect dose: 0.10 no effect. dose mg
Multiple doses of 0.25 mg/day or higher
  premature LH surge: No premature LH surge
Single dose of 3 mg or higher
  premature LH surge: No premature LH surge
Single dose regimen (one single injection of 3 mg)
  duration of effect to prevent a premature LH surge: up to 6.5 days
single/dual dosage regimen, of 104 patients
  pregnancies obtained (number): 33
